{
  "source": "patent US9592223B2",
  "about": "“Small molecule inhibitors of MALT1” (Cornell University, priority 2012, dated 2017)",
  "key": {"[1]": {"biological_target": "Caspase-3 (Homo sapiens, UniProt P42574)", "sequence (P42574 29-175 limits assumed, species assumed)": "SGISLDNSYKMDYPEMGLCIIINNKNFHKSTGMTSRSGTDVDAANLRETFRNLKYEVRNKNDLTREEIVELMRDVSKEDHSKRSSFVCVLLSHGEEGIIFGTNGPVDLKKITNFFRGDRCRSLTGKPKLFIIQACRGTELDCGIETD", "sequence (P42574 176-277 limits assumed, species assumed)": "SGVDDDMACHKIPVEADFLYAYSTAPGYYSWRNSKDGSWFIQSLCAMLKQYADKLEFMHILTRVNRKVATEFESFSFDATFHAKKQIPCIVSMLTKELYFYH", "experiment": "Caspase selectivity", "format": "biochemical"}, "[2]": {"tested_on": "NF-κB signaling gene signatures", "experiment": "Gene expression profiling and GSEA in HBL-1 and TMD8 cell lines", "format": "cell-based, human", "settings": "8 hr, HBL-1 200 nM, TMD8 500 nM", "procedure": "The impact of MI-2 on NF-κB signaling was further characterized by gene expression profiling. […] Z-VRPR-FMK was previously shown to attenuate the NF-κB signature in ABC-DLBCL cell lines (Hailfinger et al., 2009). […] GSEA was next performed using two independent ABC-DLBCL NF-κB gene expression signatures derived from either OCI-Ly3 and OCI-Ly10 or HBL-1 cell lines.\nRNA integrity was determined using the RNA 6000 Nano LabChip Kit on an Agilent 2100 Bioanalyzer (Agilent Technologies, Santa Clara, Calif.). Samples were processed following Illumina recommendations and cRNA was hybridized to the HumanHT-12 v4 Expression BeadChip (Illumina, San Diego, Calif.). Arrays were scanned on the iScan system. Data pre-processing and quality control were performed using GenomeStudio. The data were log2-transformed combined with quantile normalization (Du et al., 2008). GEO accession number GSE40003.\nIn order to determine the biological significance of the results, enrichment tests with respect to sets of related genes were carried out. To this end, we used GSEA (Gene Set Enrichment Analysis) software, and datasets were pre-ranked by fold change value (Subramanian et al., 2005). The p-values for each gene-set were computed on the basis of 1,000 iterations and multiple hypotheses testing correction for FDR calculation (Storey and Tibshirani, 2003)."}, "[3]": {"tested_on": "ABC-DLBCL cell lines (HBL1 and TMD8)", "experiment": "Caspase-3/7 cleavage assay for apoptosis", "format": "cell-based, human"}, "[4]": {"tested_on": "nuclear c-REL and p65", "experiment": "Western blots for c-REL and p65 in nuclear extracts of HBL-1 and TMD8 cells", "format": "cell-based, human", "settings": "24 hr, 200 nM for HBL-1 and 500 nM for TMD8", "procedure": "MALT1 mediates c-REL translocation to the nucleus following BCR stimulation (Ferch et al., 2007). […] This selectivity towards c-REL had also been previously shown in MALT1 knockout mice and after MALT1 cleavage inhibition by the MALT1 blocking peptide Z-VRPR-FMK (Ferch et al., 2009; Ferch et al., 2007; Hailfinger et al., 2011).\nEqual amounts of total protein (20-75 μg) were separated on sodium dodecyl sulfate-polyacrylamide gel electrophoresis (SDS-PAGE), and electrotransferred onto nitrocellulose membranes. Membranes were incubated with primary antibodies (MALT1, BCL-10, CYLD from Santa Cruz Biotechnologies, Santa Cruz, Calif.; A20 from eBioscience, San Diego, Calif.; phospho-IκB-α, IκB-α, c-REL, RELB from Cell Signaling, Danvers, Mass. and α-Tubulin from Sigma), followed by secondary antibodies conjugated to horseradish peroxidase, which were detected by chemiluminescence (Pierce, Thermo Scientific, Rockford, Ill.)."}, "[5]": {"tested_on": "primary human non-GCB DLBCL cells", "experiment": "Primary human DLBCL cells ex vivo, non-GCB cases, Trypan blue", "format": "cell-based", "settings": "0.8 μM, 48 hr", "procedure": "After 48 hr exposure, cell number and viability were determined using Trypan blue.\nPatient de-identified tissues were obtained in accordance with the guidelines and approval of the Weill Cornell Medical College Review Board. Patient samples were processed as previously described (Cerchietti et al., 2010). Briefly, single cell suspensions from lymph node biopsies were obtained by physical disruption of tissues followed by cell density gradient separation (Fico/Lite LymphoH, Atlanta Biologicals, Lawrenceville, Ga.). Cell number and viability were determined by Trypan blue exclusion. Primary DLBCL cells were cultured in 96-well plates. Cells were grown in advanced RPMI medium with 20% FBS supplemented with antibiotics for 48 hours. […] After 48 hr of exposure, viability was determined by using Trypan blue (Sigma). All samples were normalized to their own replicate control. Statistical significance was calculated using paired T-test."}, "[6]": {"tested_on": "OCI-Ly1 xenografts", "experiment": "OCI-Ly1 xenograft in NOD-SCID mice", "format": "in vivo", "settings": "IP 25 mg/kg/day", "procedure": "Animals were sacrificed 24 hr after the fourteenth injection.\nEight-week old male SCID NOD.CB17-Prkdc^scid/J mice were subcutaneously injected with low-passage 10^7 human HBL-1, TMD8 or OCI-Ly1 cells. Treatment was administered by intra-peritoneal injection. Tumor volume was monitored by three-weekly digital calipering. All procedures followed US NIH protocols and were approved by the Animal Institute Committee of the Weill Cornell Medical College.\nEight-week old male SCID NOD.CB17-Prkdc^scid/J mice were purchased from Jackson Laboratories (Bar Harbor, Minn.) and housed in a clean environment. Mice were subcutaneously injected with low-passage 10^7 human TMD8 or OCI-Ly1 cells in 50% matrigel (BD Biosciences, #354234). Treatment was initiated when tumors reached an average size of 120 mm^3 (17 days post-transplantation). Drugs were reconstituted in DMSO and stored at −80° C. until used and were administered by intra-peritoneal injection. Tumor volume was monitored by three-weekly digital calipering (Fisher Scientific, Thermo Scientific, Rockford, Ill.) and calculated using the formula (smallest diameter^2×largest diameter)/2. Data were expressed as mean±SEM, and differences were considered statistically significant at p<0.05 by paired Student's t-test. […]"}},
  "note": "Entries after “also recorded” stand apart in the source; their conditions may differ.",
  "data": [
    {"molecule": "COCCOc1nc(-c2ccc(Cl)c(Cl)c2)n(-c2ccc(NC(=O)CCl)cc2)n1", "note": "[MI-2]", "values": [
      {"measurement": "activity against Caspase-3", "setting": "[1]", "value": "little activity"},
      {"measurement": "GSEA of ABC-DLBCL NF-κB gene expression signatures", "setting": "[2]", "value": "significant enrichment of these NF-κB gene sets among genes downregulated"},
      {"measurement": "GSEA of Z-VRPR-FMK signature", "setting": "[2]", "value": "significantly enriched among genes downregulated after MI-2-treatment"},
      {"measurement": "apoptosis (Caspase-3/7 cleavage)", "setting": "[3]", "value": "dose dependent apoptosis within 48 hr"},
      {"measurement": "nuclear c-REL (Western blot)", "setting": "[4]", "value": "clear reduction of nuclear c-REL"},
      {"measurement": "nuclear p65 (Western blot)", "setting": "[4]", "value": "did not affect p65 levels"},
      {"measurement": "response of cell number and viability", "setting": "[5]", "value": "two of the non-GCB cases responded; also recorded: One of the non-GCB did not respond"},
      {"measurement": "tumor growth vs. vehicle", "setting": "[6]; fourteen injections, p=0.47", "value": "no effect on the growth"},
      {"measurement": "proliferation (Ki-67 staining)", "setting": "[6]; p=1.0", "value": "no difference"}
    ]}
  ]
}
